Reference: ChEMBL document CHEMBL4732198, “HDAC7 Inhibition by Phenacetyl and Phenylbenzoyl Hydroxamates” (J Med Chem, 2021)
Activity calls are given as the source filed them. The rule behind the calls is not given here.

Tests used:
[1] = target: T1, Class 1 histone deacetylase (Homo sapiens, UniProt Q13547+O15379+Q92769+Q9BY41); assay: Inhibition of Class 1 histone deacetylase in human THP-1 cells using Ac-LGK(Ac)-AMC as substrate incubated for 3 hrs followed by 50 uM SAHA addition and measured after 1 hr by fluorescence based assay; assay type: cell-based
[2] = Solubility of compound in PEG400 in PBS at 10 mg/ml; assay type: physicochemical
Histone deacetylase 8 = target: T2, Histone deacetylase 8 (Homo sapiens, UniProt Q9BY41); assay: Inhibition of recombinant human HDAC8 using Ac-LGK(TFA)-AMC as substrate preincubated for 30 mins followed by substrate addition and measured after 90 mins by fluorescence based assay
T2 sequence (Q9BY41 whole entry): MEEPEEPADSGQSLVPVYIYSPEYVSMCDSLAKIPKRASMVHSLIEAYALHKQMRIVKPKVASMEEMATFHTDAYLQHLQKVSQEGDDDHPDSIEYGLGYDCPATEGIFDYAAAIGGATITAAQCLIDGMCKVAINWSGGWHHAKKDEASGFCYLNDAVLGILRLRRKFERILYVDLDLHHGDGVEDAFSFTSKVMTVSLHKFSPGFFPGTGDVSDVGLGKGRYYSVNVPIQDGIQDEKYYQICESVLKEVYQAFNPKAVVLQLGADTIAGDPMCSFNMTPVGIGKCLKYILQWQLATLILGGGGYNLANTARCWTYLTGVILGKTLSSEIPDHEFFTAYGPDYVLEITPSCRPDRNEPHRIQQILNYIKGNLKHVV

Histone deacetylase 9 = Histone deacetylase 9 (Homo sapiens, UniProt Q9UKV0); assay: Inhibition of recombinant human HDAC9 using Ac-LGK(TFA)-AMC as substrate preincubated for 15 mins followed by substrate addition and measured after 60 mins by fluorescence based assay
[3] = target: T3, Protein deacetylase HDAC6 (Homo sapiens, UniProt Q9UBN7); assay: Inhibition of recombinant human HDAC6 using Boc-Lys(Ac)-AMC as substrate pre-incubated for 15 mins followed by substrate addition and measured after 60 mins by fluorescence based assay
T3 sequence (Q9UBN7 whole entry): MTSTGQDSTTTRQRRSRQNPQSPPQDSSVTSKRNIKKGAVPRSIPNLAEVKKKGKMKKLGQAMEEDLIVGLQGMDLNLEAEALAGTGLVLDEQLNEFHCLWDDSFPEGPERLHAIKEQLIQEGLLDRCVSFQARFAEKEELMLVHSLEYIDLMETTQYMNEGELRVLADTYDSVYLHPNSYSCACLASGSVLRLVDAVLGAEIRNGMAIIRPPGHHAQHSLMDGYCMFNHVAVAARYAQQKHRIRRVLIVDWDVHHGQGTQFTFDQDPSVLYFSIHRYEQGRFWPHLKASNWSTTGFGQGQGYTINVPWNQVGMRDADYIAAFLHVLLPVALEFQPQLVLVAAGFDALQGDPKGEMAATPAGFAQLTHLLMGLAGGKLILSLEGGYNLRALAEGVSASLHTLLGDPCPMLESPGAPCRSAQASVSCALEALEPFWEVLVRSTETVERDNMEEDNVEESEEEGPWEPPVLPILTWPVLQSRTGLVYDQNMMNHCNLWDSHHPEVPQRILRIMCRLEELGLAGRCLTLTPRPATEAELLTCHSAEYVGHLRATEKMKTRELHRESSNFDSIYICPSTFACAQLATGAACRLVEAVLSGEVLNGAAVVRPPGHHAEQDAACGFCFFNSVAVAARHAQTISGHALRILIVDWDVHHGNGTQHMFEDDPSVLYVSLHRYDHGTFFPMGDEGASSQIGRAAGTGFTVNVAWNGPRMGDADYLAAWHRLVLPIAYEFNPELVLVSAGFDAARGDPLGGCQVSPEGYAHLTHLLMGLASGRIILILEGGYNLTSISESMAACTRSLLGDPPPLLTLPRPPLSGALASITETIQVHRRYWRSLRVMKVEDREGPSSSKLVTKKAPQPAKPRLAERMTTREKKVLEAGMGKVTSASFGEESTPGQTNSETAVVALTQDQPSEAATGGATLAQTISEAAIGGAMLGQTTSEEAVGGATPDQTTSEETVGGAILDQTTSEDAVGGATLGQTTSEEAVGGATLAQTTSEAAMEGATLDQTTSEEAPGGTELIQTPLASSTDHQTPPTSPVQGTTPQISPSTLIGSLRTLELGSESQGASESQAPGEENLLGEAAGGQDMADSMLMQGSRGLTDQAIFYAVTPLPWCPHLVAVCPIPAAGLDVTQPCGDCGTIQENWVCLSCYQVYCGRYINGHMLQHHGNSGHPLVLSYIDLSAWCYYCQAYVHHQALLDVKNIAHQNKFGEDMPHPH

[4] = Inhibition of Class 2a histone deacetylase in human THP-1 cells using Ac-LGK(TFA)-AMC as substrate incubated for 3 hrs followed by 50 uM SAHA addition and measured after 1 hr by fluorescence based assay; assay type: cell-based
[5] = Metabolic stability in Sprague-Dawley rat liver microsomes assessed as half life at 5 uM preincubated for 5 mins followed by NADPH addition and measured after 60 mins by LCMS analysis; assay type: ADME, Microsome; conditions: time 65 min
Histone deacetylase 1 = Histone deacetylase 1 (Homo sapiens, UniProt Q13547); assay: Inhibition of recombinant human HDAC1 using Ac-LGK(Ac)-AMC as substrate preincubated for 30 mins followed by substrate addition and measured after 90 mins by fluorescence based assay
Macrophage [6] = assay: Antiinflammatory activity in human monocytes-derived macrophages assessed as inhibition of LPS-induced GM-CSF secretion at 30 uM pretreated for 1 hr followed by LPS stimulation and measured after 24 hrs by homogenous time-resolved fluorescence assay; assay type: functional, cell-based; conditions: time 25.0 hrs
Histone deacetylase 5 = Histone deacetylase 5 (Homo sapiens, UniProt Q9UQL6); assay: Inhibition of recombinant human HDAC5 using Ac-LGK(TFA)-AMC as substrate pre-incubated for 15 mins followed by substrate addition and measured after 60 mins by fluorescence based assay
Macrophage [7] = assay: Antiinflammatory activity in human monocytes-derived macrophages assessed as inhibition of LPS-induced CCL2 secretion at 30 uM pretreated for 1 hr followed by LPS stimulation and measured after 24 hrs by homogenous time-resolved fluorescence assay; assay type: functional, cell-based; conditions: time 25.0 hrs
Macrophage [8] = assay: Antiinflammatory activity in human monocytes-derived macrophages assessed as inhibition of LPS-induced IL-1alpha secretion at 30 uM pretreated for 1 hr followed by LPS stimulation and measured after 24 hrs by homogenous time-resolved fluorescence assay; assay type: functional, cell-based; conditions: time 25.0 hrs
Macrophage [9] = assay: Antiinflammatory activity in human monocytes-derived macrophages assessed as inhibition of LPS-induced IL-6 secretion at 30 uM pretreated for 1 hr followed by LPS stimulation and measured after 24 hrs by homogenous time-resolved fluorescence assay; assay type: functional, cell-based; conditions: time 25.0 hrs
Histone deacetylase 4 = Histone deacetylase 4 (Homo sapiens, UniProt P56524); assay: Inhibition of recombinant human HDAC4 using Ac-LGK(TFA)-AMC as substrate pre-incubated for 15 mins followed by substrate addition and measured after 60 mins by fluorescence based assay
[10] = target: T1, Class 1 histone deacetylase; assay: Inhibition of Class 1 histone deacetylase in human THP-1 cells assessed as accumulation of Histone H4 acetylation levels at 1 to 10 uM incubated for 3 hrs by western blot analysis; assay type: cell-based; conditions: dose 1-10 µM
Macrophage [11] = assay: Antiinflammatory activity in human monocytes-derived macrophages assessed as inhibition of LPS-induced IL-23 secretion at 30 uM pretreated for 1 hr followed by LPS stimulation and measured after 24 hrs by homogenous time-resolved fluorescence assay; assay type: functional, cell-based; conditions: time 25.0 hrs
[12] = Metabolic stability in Sprague-Dawley rat liver microsomes assessed as half life at 20 uM preincubated for 5 mins followed by NADPH addition and measured after 60 mins by LCMS analysis; assay type: ADME, Microsome; conditions: time 65 min
Macrophage [13] = assay: Antiinflammatory activity in human monocytes-derived macrophages assessed as inhibition of LPS-induced IL-12p40 secretion at 30 uM pretreated for 1 hr followed by LPS stimulation and measured after 24 hrs by homogenous time-resolved fluorescence assay; assay type: functional, cell-based; conditions: time 25.0 hrs
Histone deacetylase 7 = target: T4, Histone deacetylase 7 (Homo sapiens, UniProt Q8WUI4)
T4 sequence (Q8WUI4 whole entry): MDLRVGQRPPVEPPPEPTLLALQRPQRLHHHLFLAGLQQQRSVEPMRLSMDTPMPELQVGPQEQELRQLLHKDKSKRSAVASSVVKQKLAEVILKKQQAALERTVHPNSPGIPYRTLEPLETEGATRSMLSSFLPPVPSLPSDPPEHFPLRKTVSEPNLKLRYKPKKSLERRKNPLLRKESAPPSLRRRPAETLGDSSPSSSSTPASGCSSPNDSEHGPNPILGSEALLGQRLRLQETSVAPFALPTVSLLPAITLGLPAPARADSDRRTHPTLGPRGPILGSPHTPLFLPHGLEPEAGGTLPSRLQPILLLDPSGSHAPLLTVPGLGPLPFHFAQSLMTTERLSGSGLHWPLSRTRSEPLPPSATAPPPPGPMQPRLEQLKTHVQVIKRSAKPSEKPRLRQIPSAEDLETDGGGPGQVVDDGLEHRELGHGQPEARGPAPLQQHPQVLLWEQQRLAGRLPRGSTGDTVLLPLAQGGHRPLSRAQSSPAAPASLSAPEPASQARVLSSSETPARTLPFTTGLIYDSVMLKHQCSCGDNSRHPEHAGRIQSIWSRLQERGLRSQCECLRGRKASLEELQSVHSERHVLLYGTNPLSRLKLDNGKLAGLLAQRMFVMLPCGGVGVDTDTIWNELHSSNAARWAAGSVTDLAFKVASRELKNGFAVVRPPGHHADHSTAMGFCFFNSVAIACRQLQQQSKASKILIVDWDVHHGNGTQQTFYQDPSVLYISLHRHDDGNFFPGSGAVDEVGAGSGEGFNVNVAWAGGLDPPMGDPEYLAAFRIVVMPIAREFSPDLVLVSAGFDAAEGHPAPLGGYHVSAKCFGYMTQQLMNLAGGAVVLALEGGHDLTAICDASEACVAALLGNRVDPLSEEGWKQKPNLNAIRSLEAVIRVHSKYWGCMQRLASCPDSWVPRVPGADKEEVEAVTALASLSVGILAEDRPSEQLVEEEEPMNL
Description: Inhibition of recombinant human HDAC7 using Ac-LGK(TFA)-AMC as substrate pre-incubated for 15 mins followed by substrate addition and measured after 60 mins by fluorescence based assay

Sequence of Histone deacetylase 1 (Q13547 whole entry): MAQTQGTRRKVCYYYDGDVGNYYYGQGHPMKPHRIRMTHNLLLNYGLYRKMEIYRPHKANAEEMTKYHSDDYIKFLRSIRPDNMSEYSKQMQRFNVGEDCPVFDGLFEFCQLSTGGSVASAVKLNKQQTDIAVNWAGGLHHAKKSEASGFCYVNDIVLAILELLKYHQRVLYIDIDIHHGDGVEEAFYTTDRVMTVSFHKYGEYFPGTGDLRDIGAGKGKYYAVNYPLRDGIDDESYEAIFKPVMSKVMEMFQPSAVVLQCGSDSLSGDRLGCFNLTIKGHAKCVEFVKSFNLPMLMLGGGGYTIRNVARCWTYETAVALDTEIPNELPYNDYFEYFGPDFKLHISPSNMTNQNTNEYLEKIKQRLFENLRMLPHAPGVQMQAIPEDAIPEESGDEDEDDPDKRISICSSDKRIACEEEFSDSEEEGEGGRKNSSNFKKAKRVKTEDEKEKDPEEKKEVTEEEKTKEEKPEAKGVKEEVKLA
Sequence of Histone deacetylase 9 (Q9UKV0 whole entry): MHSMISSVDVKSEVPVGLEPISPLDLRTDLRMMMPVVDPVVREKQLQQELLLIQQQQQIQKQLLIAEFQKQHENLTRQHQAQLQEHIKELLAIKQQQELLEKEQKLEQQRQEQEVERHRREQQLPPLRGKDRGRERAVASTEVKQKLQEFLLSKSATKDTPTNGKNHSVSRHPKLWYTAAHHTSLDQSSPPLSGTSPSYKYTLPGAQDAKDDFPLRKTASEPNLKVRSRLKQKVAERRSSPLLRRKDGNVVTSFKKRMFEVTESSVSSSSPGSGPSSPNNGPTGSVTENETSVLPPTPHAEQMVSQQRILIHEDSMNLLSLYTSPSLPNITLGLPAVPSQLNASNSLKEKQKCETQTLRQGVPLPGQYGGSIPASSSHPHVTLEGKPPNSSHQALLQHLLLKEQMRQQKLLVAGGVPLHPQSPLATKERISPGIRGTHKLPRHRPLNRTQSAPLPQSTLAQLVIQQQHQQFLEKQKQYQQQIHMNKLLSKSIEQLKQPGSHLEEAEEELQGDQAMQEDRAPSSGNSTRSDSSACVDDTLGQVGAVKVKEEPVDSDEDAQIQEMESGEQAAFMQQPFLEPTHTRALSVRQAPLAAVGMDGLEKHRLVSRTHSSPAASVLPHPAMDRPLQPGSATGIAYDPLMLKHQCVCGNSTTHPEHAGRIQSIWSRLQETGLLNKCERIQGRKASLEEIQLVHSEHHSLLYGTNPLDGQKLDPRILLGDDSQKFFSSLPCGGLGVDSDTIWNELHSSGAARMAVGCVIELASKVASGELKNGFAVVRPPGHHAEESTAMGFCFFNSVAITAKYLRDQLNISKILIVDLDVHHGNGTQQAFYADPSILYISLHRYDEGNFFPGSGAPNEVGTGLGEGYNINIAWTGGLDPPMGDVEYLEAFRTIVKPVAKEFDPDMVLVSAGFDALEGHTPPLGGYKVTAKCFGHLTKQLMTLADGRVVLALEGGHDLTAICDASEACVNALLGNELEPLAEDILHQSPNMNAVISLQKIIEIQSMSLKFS
Sequence of Histone deacetylase 4 (P56524 whole entry): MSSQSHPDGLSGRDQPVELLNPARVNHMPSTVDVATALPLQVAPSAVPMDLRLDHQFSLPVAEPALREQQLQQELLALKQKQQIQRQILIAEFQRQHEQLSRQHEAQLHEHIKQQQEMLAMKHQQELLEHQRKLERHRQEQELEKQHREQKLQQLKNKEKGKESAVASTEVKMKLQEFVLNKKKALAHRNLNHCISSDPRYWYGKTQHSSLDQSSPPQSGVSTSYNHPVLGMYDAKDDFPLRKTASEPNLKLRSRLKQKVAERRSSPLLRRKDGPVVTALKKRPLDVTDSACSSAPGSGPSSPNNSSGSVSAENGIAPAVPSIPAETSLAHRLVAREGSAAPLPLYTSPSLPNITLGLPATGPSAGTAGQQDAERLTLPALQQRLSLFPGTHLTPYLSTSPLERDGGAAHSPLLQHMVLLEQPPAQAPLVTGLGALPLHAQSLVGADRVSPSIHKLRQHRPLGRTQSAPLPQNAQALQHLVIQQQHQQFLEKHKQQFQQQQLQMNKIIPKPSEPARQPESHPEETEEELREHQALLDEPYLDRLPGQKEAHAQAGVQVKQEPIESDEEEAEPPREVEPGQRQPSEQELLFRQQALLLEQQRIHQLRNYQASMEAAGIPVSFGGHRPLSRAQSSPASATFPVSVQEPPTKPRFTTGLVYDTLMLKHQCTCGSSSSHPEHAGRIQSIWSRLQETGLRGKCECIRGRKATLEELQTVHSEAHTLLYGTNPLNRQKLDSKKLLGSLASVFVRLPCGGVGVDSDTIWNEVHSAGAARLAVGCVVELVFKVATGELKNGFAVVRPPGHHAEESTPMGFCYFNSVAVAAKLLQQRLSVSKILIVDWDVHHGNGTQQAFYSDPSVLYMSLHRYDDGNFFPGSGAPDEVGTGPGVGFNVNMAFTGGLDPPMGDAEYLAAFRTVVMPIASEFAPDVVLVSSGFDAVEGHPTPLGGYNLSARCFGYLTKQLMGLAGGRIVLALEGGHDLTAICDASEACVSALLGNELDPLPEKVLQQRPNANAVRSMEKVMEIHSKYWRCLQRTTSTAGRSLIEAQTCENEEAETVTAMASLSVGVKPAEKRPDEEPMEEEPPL
Sequence of Histone deacetylase 5 (Q9UQL6 whole entry): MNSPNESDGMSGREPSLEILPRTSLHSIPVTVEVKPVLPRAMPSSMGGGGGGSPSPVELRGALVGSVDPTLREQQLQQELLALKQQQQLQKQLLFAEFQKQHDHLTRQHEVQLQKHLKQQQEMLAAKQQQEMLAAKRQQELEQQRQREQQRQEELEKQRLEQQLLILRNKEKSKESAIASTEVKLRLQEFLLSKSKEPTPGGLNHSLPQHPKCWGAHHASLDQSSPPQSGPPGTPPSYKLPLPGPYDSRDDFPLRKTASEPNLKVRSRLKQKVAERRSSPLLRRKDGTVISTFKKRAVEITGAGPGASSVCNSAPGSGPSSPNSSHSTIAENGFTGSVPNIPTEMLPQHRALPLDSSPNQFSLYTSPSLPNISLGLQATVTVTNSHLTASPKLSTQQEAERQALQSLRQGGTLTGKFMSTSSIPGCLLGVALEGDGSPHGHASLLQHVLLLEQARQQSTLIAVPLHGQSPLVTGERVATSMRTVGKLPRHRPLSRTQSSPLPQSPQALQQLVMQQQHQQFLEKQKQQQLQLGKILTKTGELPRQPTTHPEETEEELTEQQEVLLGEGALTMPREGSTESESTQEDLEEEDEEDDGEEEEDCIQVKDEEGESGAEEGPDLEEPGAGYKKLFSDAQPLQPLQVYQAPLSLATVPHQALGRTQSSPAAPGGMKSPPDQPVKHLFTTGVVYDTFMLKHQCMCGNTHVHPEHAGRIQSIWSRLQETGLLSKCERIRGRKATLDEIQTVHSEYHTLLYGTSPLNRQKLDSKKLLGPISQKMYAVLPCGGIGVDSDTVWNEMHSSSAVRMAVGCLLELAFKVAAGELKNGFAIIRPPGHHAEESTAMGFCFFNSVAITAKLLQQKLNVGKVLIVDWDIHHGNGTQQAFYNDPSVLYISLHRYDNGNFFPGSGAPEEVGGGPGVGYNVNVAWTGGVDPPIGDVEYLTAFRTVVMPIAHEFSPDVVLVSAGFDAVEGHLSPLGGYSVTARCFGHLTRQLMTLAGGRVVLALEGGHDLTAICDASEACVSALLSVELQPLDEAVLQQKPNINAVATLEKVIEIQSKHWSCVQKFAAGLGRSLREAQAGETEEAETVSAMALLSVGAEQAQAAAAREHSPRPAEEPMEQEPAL

## O=C(NO)c1ccc(CN2C(=O)c3ccccc3C2=O)cc1-c1ccccc1
[1]
  IC50: > 30000 nM
[2]
  solubility: Insoluble
Histone deacetylase 8
  IC50: 72 nM
Histone deacetylase 9
  IC50: 20 nM
[3]
  IC50: 6400 nM
[4]
  IC50: 300 nM
[5]
  half-life at 5 µM: 0.917 h

## O=C(NO)c1ccc(CN2C(=O)c3ccccc3C2=O)cc1
Histone deacetylase 1
  IC50: 170 nM

## Cc1ccc(C(=O)NO)c(-c2ccccc2)c1
Histone deacetylase 1
  IC50: > 100000 nM

## O=C(NO)c1ccc(CN2C(=O)CCC2=O)cc1-c1ccccc1
Histone deacetylase 1
  IC50: > 100000 nM

## CC(C)(CNC(=O)c1cccc(-c2noc(C(F)(F)F)n2)c1)c1coc(-c2ccccc2)n1
Macrophage [6]
  Activity: Active
Histone deacetylase 1
  IC50: 45000 nM
[1]
  IC50: > 30000 nM
Histone deacetylase 5
  IC50: 216 nM
Macrophage [7]
  Activity: Active
Macrophage [8]
  Activity: Active
Macrophage [9]
  Activity: Active
Histone deacetylase 8
  IC50: 2100 nM
Histone deacetylase 4
  IC50: 354 nM
Histone deacetylase 9
  IC50: 16 nM
[10]
  inhibition: inactive
[4]
  IC50: 3000 nM
Macrophage [11]
  Activity: Active
[12]
  half-life at 20 µM: 0.767 h
Macrophage [13]
  Activity: inactive

## O=C(NCCCCC(C(=O)NO)c1ccccc1)c1ccccc1O (configuration not stated)
Histone deacetylase 1
  IC50: > 10000 nM
Histone deacetylase 7
  IC50: 1900 nM

## O=C(O)c1cccc(C(CCCCN2C(=O)c3ccccc3C2=O)C(=O)NO)c1 (configuration not stated)
Histone deacetylase 1
  IC50: 1400 nM
Histone deacetylase 7
  IC50: 1400 nM

## O=C(NO)C(CCCCN1C(=O)c2ccccc2C1=O)c1ccccc1 (configuration not stated)
Histone deacetylase 1
  IC50: 26000 nM
[5]
  half-life at 5 µM: 0.533 h

## O=C(NO)c1ccc(CN2Cc3ccccc3C2=O)cc1-c1ccccc1
Histone deacetylase 1
  IC50: 10000 nM
[5]
  half-life at 5 µM: 2.82 h

## O=C(NO)[C@H](CCCCN1C(=O)c2ccccc2C1=O)c1ccccc1
Histone deacetylase 1
  IC50: 20000 nM

## O=C(NCc1ccc(C(=O)NO)c(-c2ccccc2)c1)c1ccccc1F
Histone deacetylase 1
  IC50: 39000 nM

## O=C(NO)C(OCCCN1C(=O)c2ccccc2C1=O)c1ccccc1 (configuration not stated)
Histone deacetylase 7
  IC50: 1100 nM

## O=C(NO)[C@@H](CCCCN1C(=O)c2ccccc2C1=O)c1ccccc1
Histone deacetylase 1
  IC50: 19000 nM

## O=C(NO)c1ccc(CN2C(=O)c3ccncc3C2=O)cc1-c1ccccc1
Histone deacetylase 1
  IC50: > 100000 nM

## COc1ccc(CC(=O)NCCCCC(C(=O)NO)c2ccccc2)cc1 (configuration not stated)
Histone deacetylase 1
  IC50: 10000 nM
Histone deacetylase 7
  IC50: 1700 nM

## O=C(NO)C(OCCCN1C(=O)c2ccccc2C1=O)c1cccc(Cl)c1 (configuration not stated)
Histone deacetylase 7
  IC50: 1100 nM

## O=C(NO)c1ccc(CN2C(=O)c3cccnc3C2=O)cc1-c1ccccc1
Histone deacetylase 1
  IC50: > 100000 nM

## CC(C)[C@H](C(=O)Nc1ccc(C(=O)NO)cc1)c1ccccc1
[10]
  inhibition: Active

## O=C(O)c1ccccc1C(=O)NCc1ccc(C(=O)NO)c(-c2ccccc2)c1
Histone deacetylase 1
  IC50: > 100000 nM

## O=C(CCCCCCC(=O)Nc1ccccc1)NO [VORINOSTAT]
[5]
  half-life at 5 µM: 3.3 h

## O=C(NO)c1ccc(CN2C(=O)c3cccc(F)c3C2=O)cc1-c1ccccc1
[1]
  IC50: > 30000 nM
[2]
  solubility: Insoluble
Histone deacetylase 8
  IC50: 88 nM
Histone deacetylase 9
  IC50: 46 nM
[3]
  IC50: 4200 nM
[4]
  IC50: 300 nM
[5]
  half-life at 5 µM: 8.08 h

## O=C(NO)c1ccc(CN2C(=O)c3ccccc3S2(=O)=O)cc1-c1ccccc1
Macrophage [6]
  Activity: Active
[1]
  IC50: > 30000 nM
Macrophage [7]
  Activity: Active
Macrophage [8]
  Activity: Active
[2]
  solubility: Soluble
Macrophage [9]
  Activity: Active
Histone deacetylase 8
  IC50: 71 nM
Histone deacetylase 4
  IC50: 49 nM
Histone deacetylase 9
  IC50: 38 nM
[10]
  inhibition: inactive
[3]
  IC50: 5300 nM
[4]
  IC50: 300 nM
[5]
  half-life at 5 µM: 3.83 h
Macrophage [11]
  Activity: Active
Macrophage [13]
  Activity: inactive
